We go through 31 molecules from patent publication US6331553A, “Aromatic amine derivatives having NOS inhibiting action” (Chugai Seiyaku Kabushiki Kaisha, priority 1996, dated 2001).

Read-outs that look alike come from different tables or passages of the source.

In one experiment the target is T1, nNOS (Rattus norvegicus, UniProt P29476).
T1 construct: a soluble cytosolic fraction of the finally obtained supernatant was used as the crude enzyme of nNOS; from tissue; host or cells: rat cerebral cortex, soluble cytosolic fraction (100,000×g supernatant)
The experiment in a line: biochemical. Further details: species or system male Sprague Dawley (SD) rats (cerebral cortex). As to conditions: for Selectivity eNOS/nNOS: ratio of IC50 values eNOS/nNOS; for Selectivity iNOS/nNOS: ratio of IC50 values iNOS/nNOS.

Another experiment has as its target T2, eNOS (Bos taurus, UniProt P29473).
T2 construct: the resulting supernatant was used as the crude enzyme of eNOS; endogenous in cells; host or cells: CPAE (cow pulmonary arterial endothelium cells), 1% Triton X-100 extract
The experiment in a line: Inhibitory effect on crude eNOS (conversion of L-[3H]arginine to L-[3H]citrulline). It is filed as biochemical, Cow (pulmonary arterial endothelium cells, CPAE). The protocol:
(§1) Compounds of the invention were evaluated for their inhibitory effect on the presently known three NOS isoforms.
Crude enzymes of the respective NOS isoforms were prepared by the following procedures (Nagafuji et al., Neuroreport 6, 1541-1545, 1995).
The crude enzyme of eNOS was prepared by the following procedure. Cow pulmonary arterial endothelium cells (CPAE) were cultured in a MEM medium containing 20% FBS. Several days later, the cells were detached from the flask using a 0.25% trypsin solution containing 1 mM EDTA and, after addition of a suitable amount of FBS, centrifuged at 1,000 rpm for 10 min. A suitable amount of Ca- and Mg-free phosphate buffer (pH 7.4) was added to the precipitating cells and they were centrifuged at 1,000 rpm for 10 min. The same step was repeated to wash the cells which, upon addition of 50 mM Tris-HCl (pH 7.4) containing 1% Triton X-100 and 1 mM DTT, were left to stand in ice for 1 h. Subsequently, the mixture was homogenized for 3 min and kept in ice for 30 min with occasional stirring. Finally, the mixture was centrifuged at 100,000×g for 60 min and the resulting supernatant was used as the crude enzyme of eNOS.
The method of measuring NOS activity was basically the same as already reported by the present inventors and consisted of determining quantitatively the conversion of a substrate L-[^3 H]arginine to a reaction product L-[^3 H] citrulline (Nagafuji et al., in Brain Edema IX (Ito et al, eds.) 60, pp. 285-288, 1994; Nagafuji et al., Neuroreport 6, 1541-1545, 1995)
The reaction solution consisted of 100 nM L-[^3 H] arginine, a prepared crude NOS enzyme sample (10-30 μg/ml protein), 1.25 mM CaCl2, 1 mM EDTA, 10 μg/ml calmodulin, 1 mM NADPH, 100 μM tetrahydrobiopterine, 10 μM FAD, 10 μM FMN and 50 mM Tris-HCl (pH 7.4), to which one of the compounds of the invention or one of the control compounds was added.
(§2) The reaction was started by addition of L-[^3 H] arginine. After incubation at 37° C. for 10 min, the reaction was terminated by addition of 2 ml of 50 mM Tris-HCl (pH 5.5) containing 1 mM EDTA and placing the mixture on ice. The reaction solution was passed through a cation-exchange resin column (Dowex AG50WX-8, Na^+ form, 3.2 ml) to separate the reaction product L-[^3 H] citrulline from the unreacted residual substrate L-[^3 H] arginine. The eluate was combined with another eluate resulting from the passage of a given amount of distilled water through the column and put into a minivial for recovery of L-[^3 H] citrulline. Thereafter, a scintillation fluid was added and the contained radioactivity was measured with a liquid scintillation counter to determine the amount of L-[^3 H] citrulline.
(§3) The activity of nNOS or eNOS was determined by subtracting the activity detected in the absence of CaCl2 and calmodulin from the activity detected in the presence of CaCl2 and calmodulin. The activity of iNOS was detected in the absence of CaCl2 and calmodulin. The protein concentration of each crude enzyme sample was determined with a micro-assay kit of Bio Rad Co. Each Experiment was conducted in a duplicate.
Table 81 lists the mean values of IC50 (the concentration necessary to inhibit 50% activity) of all test compounds against each NOS isoform. The table also lists the ratios of IC50 values to each other as an index of selectivity.

Another experiment concerns the target T3, iNOS (Rattus norvegicus, UniProt Q06518).
T3 construct: a soluble cytosolic fraction of the finally obtained supernatant was used as the crude enzyme of iNOS; from tissue; host or cells: lungs of LPS-treated rats, soluble cytosolic fraction (100,000×g supernatant)
Put plainly: Inhibitory effect on crude iNOS (conversion of L-[3H]arginine to L-[3H]citrulline). As to conditions: for IC50: mean values, duplicate, crude enzyme from lungs of LPS-treated rats, 37° C. 10 min, read-out: Inhibitory action IC50 iNOS; for Selectivity eNOS/iNOS: ratio of IC50 values eNOS/iNOS. It is filed as biochemical, Rats (lungs, LPS treated). How it is done: as §1
The crude enzyme of iNOS was prepared by the following procedure. Rats were administered LPS (10 mg/kg) intraperitoneally and, 6 h later, perfused in a transcardiac manner with physiological saline containing 10 U/ml of heparin; thereafter, lungs were taken out. Subsequently, 5 volumes of 50 mM Tris-HCl containing 1 mM DTT (pH 7.4) was added and the mixture was homogenized for 3 min, followed by centrifugation of the homogenate at 1,000×g for 10 min. The resulting supernatant was centrifuged at 100,000×g for 60 min and a soluble cytosolic fraction of the finally obtained supernatant was used as the crude enzyme of iNOS.
as §2, §3
The table also lists the ratios of IC50 values to each other as an index of selectivity.

[1] abbreviates: mean values, duplicate, crude enzyme from rat cerebral cortex, 37° C. 10 min, read-out: Inhibitory action IC50 nNOS.
The mark [2] stands for this setting: mean values, duplicate, crude enzyme from CPAE cells, 37° C. 10 min, read-out: Inhibitory action IC50 eNOS.

T2 sequence (P29473 2-1205): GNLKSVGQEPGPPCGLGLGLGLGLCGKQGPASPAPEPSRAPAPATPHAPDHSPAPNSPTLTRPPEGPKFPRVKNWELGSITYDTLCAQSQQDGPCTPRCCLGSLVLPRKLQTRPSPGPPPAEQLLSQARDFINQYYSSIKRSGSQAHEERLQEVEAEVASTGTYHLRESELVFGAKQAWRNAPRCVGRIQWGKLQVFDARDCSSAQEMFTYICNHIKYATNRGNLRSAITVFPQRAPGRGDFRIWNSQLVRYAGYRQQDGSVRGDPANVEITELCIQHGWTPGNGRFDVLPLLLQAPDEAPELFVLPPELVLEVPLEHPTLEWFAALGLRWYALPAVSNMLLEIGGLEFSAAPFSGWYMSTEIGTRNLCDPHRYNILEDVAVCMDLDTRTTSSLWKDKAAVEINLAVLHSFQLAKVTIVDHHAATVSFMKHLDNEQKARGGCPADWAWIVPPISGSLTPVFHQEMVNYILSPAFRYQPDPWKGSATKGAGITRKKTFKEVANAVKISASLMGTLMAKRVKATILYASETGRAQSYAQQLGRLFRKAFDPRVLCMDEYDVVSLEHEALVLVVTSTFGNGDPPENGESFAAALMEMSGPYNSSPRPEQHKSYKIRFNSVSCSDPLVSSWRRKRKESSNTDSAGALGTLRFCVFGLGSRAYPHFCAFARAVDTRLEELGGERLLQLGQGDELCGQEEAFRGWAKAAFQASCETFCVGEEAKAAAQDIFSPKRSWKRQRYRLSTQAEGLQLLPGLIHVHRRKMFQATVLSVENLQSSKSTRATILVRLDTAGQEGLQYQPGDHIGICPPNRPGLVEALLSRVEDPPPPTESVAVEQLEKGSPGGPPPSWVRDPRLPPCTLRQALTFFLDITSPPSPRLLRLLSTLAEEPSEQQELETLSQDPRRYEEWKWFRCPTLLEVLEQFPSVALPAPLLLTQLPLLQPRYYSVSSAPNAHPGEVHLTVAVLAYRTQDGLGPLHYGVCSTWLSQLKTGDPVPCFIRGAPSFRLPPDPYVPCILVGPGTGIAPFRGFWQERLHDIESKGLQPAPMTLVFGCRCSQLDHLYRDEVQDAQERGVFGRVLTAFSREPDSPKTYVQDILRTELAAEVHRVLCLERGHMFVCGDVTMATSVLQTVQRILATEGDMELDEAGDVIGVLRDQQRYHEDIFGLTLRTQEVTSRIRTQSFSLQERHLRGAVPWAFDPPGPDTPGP
Protocol for nNOS: The crude enzyme of nNOS was prepared by the following procedure. Normal untreated male Sprague Dawley (SD) rats (body weight, 300-400 g) were decapitated; the whole brain was immediately taken out from each animal and the cerebral cortex was separated on ice. Then, 5 volumes of 50 mM Tris-HCl containing 1 mM DTT (pH 7.4) was added and the mixture was homogenized for 3 min and centrifuged at 1,000×g for 10 min. The resulting supernatant was further centrifuged at 100,000×g for 60 min and a soluble cytosolic fraction of the finally obtained supernatant was used as the crude enzyme of nNOS.

As for `CCOc1ccc([N+](=O)[O-])c(Nc2cccc(CN)c2)n1` [Example 57], the results for the IC50 at nNOS (setting [1]) and at eNOS (setting [2]) were 70.8 nM and 947 nM, respectively. The “Selectivity eNOS/nNOS” value on nNOS is reported as 13.
On the same counts, the results for `COc1ccc([N+](=O)[O-])c(Nc2cccc(C(C)(C)N)c2)n1` [Example 462] are 16.4 nM, 257 nM and 16.
For `CCOc1c(Nc2cc(C)ccn2)ccc(C)c1CN` [Example 522] the same measures were 19.7 nM, 398 nM and 20.
Turning to `Cc1ccnc(Nc2cccc(CN)c2Cl)c1` [Example 485], the IC50 (commonly the concentration that gives 50% inhibition) on nNOS (setting [1]) worked out at 54.4 nM. For the same molecule, on nNOS, the “Selectivity eNOS/nNOS” value amounted to 53 and the “Selectivity iNOS/nNOS” value is reported as 32. Besides, on iNOS, the IC50 came to 1770 nM and the “Selectivity eNOS/iNOS” value came out at 1.6. The IC50 at eNOS (setting [2]) was determined as 2880 nM.
`CCCOc1c(CN)cccc1Nc1cc(C)ccn1` [Example 506]: the IC50 worked out at 29.1 nM on nNOS (setting [1]) and 1290 nM at eNOS (setting [2]). For the same molecule, at nNOS, the “Selectivity eNOS/nNOS” value was determined as 45.
With `Cc1ccnc(Nc2ccc(CCN)cc2)c1` [Example 489], on nNOS, 22.1 nM corresponded to half-maximal inhibition (IC50).
For `COc1ccc([N+](=O)[O-])c(Nc2ccc(Cl)c(CN)c2)n1` [Example 466], the values for the IC50 at nNOS (setting [1]) and at eNOS (setting [2]) were 35.5 nM and 421 nM, respectively. The “Selectivity eNOS/nNOS” value at nNOS came to 12.
For `CCc1ccc([N+](=O)[O-])c(Nc2cccc(CN)c2)n1.Cl` [Example 53, 2-(3-aminomethylphenylamino)-6-ethyl-3-nitropyridine hydrochloride] the same measures were 86.1 nM, 6620 nM and 77.
On the same counts, the results for `COc1ccc([N+](=O)[O-])c(Nc2cccc(CN)c2Cl)n1` [Example 469] are 40 nM, 994 nM and 25.
On the same counts, the results for `Cc1ccc([N+](=O)[O-])c(Nc2cccc(CN)c2)c1` [Example 151] are 126 nM, 679 nM and 5.
As to `Cc1ccnc(Nc2ccc(Cl)c(CN)c2)c1` [Example 491], the IC50 came to 45.8 nM on nNOS (setting [1]) and 1770 nM at eNOS (setting [2]). Moreover, on nNOS, the “Selectivity eNOS/nNOS” value stood at 39.
On the same counts, the results for `Cc1ccc([N+](=O)[O-])c(Nc2cccc(CN)c2)n1.Cl` [Example 52, 2-(3-aminomethylphenylamino)-6-methyl-3-nitropyridine hydrochloride] are 79.8 nM, 1480 nM and 19.
For `COc1ccc([N+](=O)[O-])c(Nc2ccc(CCN)cc2)n1` [Example 460] the same measures were 112 nM, 1240 nM and 11.
For `COc1ccc([N+](=O)[O-])c(Nc2cccc(CN)c2)n1` [Example 18], the IC50 turned out to be 22.6 nM on nNOS (setting [1]), 917 nM on iNOS and 322 nM at eNOS (setting [2]). For the same molecule, the “Selectivity eNOS/nNOS” value at nNOS is 14. In addition, the “Selectivity iNOS/nNOS” value at nNOS worked out at 41. Besides, the “Selectivity eNOS/iNOS” value at iNOS worked out at 0.14.
For the molecule `CCOc1c(Nc2cc(C)ccn2)ccc(Cl)c1CN` [Example 521], the IC50 on nNOS (setting [1]) stood at 19.5 nM; on eNOS (setting [2]), 485 nM. Also, on nNOS, the “Selectivity eNOS/nNOS” value is 25.
For `Cc1ccnc(Nc2cccc(CN)c2OC(C)C)c1` [Example 543] the same measures were 12.5 nM, 250 nM and 20.
For `COc1ccc([N+](=O)[O-])c(Nc2cccc(CN)c2)c1` [Example 153] the same measures were 29.8 nM, 586 nM and 20.
On the same counts, the results for `CCOc1c(CN)cccc1Nc1cc(C)ccn1` [Example 490] are 18.1 nM, 347 nM and 19.
In the case of `Cc1ccnc(Nc2cccc(CN)c2C)c1` [Example 481], the IC50 at nNOS (setting [1]) is 78.1 nM; at eNOS (setting [2]), 1980 nM. For the same molecule, the “Selectivity eNOS/nNOS” value at nNOS worked out at 25.
On the same counts, the results for `COc1ccc([N+](=O)[O-])c(Nc2cccc(CN)c2OC)n1` [Example 465] are 31.2 nM, 1000 nM and 32.
On the same counts, the results for `COc1ccc([N+](=O)[O-])c(Nc2cccc(CN)c2C)n1` [Example 458] are 20.8 nM, 403 nM and 19.
For `COc1ccc([N+](=O)[O-])c(Nc2ccc(F)c(CN)c2)n1` [Example 467] the same measures were 19.6 nM, 275 nM and 14.
Take `Cc1ccnc(Nc2cccc(C(C)(C)N)c2)c1` [Example 479]: the IC50 on nNOS (setting [1]) was 66.9 nM; at eNOS (setting [2]), 802 nM. For the same molecule, the “Selectivity eNOS/nNOS” value on nNOS came to 12.
For `Cc1ccnc(Nc2cccc(C3(N)CCC3)c2)c1` [Example 488] the same measures were 39.9 nM, 298 nM and 8.
On the same counts, the results for `Cc1ccnc(Nc2cccc(CN)c2)c1` [Example 478] are 61.6 nM, 448 nM and 7.
For `CCOc1ccc(Nc2cc(C)ccn2)cc1CN` [Example 483], the IC50 on nNOS (setting [1]) was 65.4 nM; at eNOS (setting [2]), 711 nM. The “Selectivity eNOS/nNOS” value on nNOS was 11.
On the same counts, the results for `CCOc1c(CN)cccc1Nc1nc(OC)ccc1[N+](=O)[O-]` [Example 468] are 56.3 nM, 2480 nM and 44.
Turning to `Cc1ccnc(Nc2ccccc2CCN)c1` [Example 484], at nNOS, inhibition was half-maximal at 69.2 nM (IC50) and the “Selectivity eNOS/nNOS” value was 18. On eNOS, this molecule returned an IC50 of 1260 nM.
Turning to `COc1c(CN)cccc1Nc1cc(C)ccn1` [Example 541], the values for the IC50 on nNOS (setting [1]) and on eNOS (setting [2]) were 25.9 nM and 713 nM, respectively. At nNOS, the “Selectivity eNOS/nNOS” value is listed as 28.
On the same counts, the results for `CSc1ccc([N+](=O)[O-])c(Nc2cccc(CN)c2)n1` [Example 61] are 126 nM, 1610 nM and 13.
On the same counts, the results for `CCc1ccc(Nc2cc(C)ccn2)cc1CN` [Example 482] are 50.5 nM, 1350 nM and 27.
